In patent publication US10538516B2, “Oxadiazole derivative and pharmaceutical containing same” (National Center for Geriatrics and Gerontology, priority 2015, dated 2020):
Like-named read-outs stand apart in the source and are kept apart here.

Target: T1, GAβ-dependent amyloid fibril formation (Human Aβ1-40 + GM1-containing liposome) (Homo sapiens, UniProt P05067)
T1 construct: Human Aβ1-40 (cat. #4307-v, prepared by Peptide Institute); purchased Peptide Institute 4307-v
Experiment: Thioflavin T (ThT) assay of GAβ-dependent amyloid fibril formation (Aβ1-40 with GM1-containing liposome)
Format: biochemical
Procedure, shortened: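 Human Aβ1-40 (75 μM stock) pre-incubated 10 min at room temperature with compound (75 or 15 μM solution), then GM1-containing cholesterol/sphingomyelin liposome added and incubated 37° C, 18 hours. Fibrils quantified by ThT fluorescence (ex 430/em 490 nm, pH 8.5 glycine buffer); inhibition as ratio to compound-free control.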

[1] = inhibition rate against amyloid fibril formation, final concentration of the compound 25 μM, read-out: Inhibitory activity ABC evaluation
[2] = @25 μM, read-out: ThT Inhibitory activity (% inhibition)

T1 sequence (P05067 672-711 limits assumed): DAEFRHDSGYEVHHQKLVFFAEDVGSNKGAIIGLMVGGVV

SMILES	inhibition at 25 µM [1] [%]	inhibition at 25 µM [2] [%]
O=C(N[C@@H](CO)c1nc(-c2cc(Cl)sc2Cl)no1)c1ccc(F)cc1 [Compound 231, N-[(1S)-1-[3-(2,5-dichlorothiophen-3-yl)-1,2,4-oxadiazol-5-yl]-2-hydroxyethyl]-4-fluorobenzamide]	40 to 80	–
O=C(N[C@@H](CO)c1nc(-c2cc3ccccc3s2)no1)c1ccc(F)cc1 [Compound 232, N-[(1S)-1-[3-(1-benzothiophen-2-yl)-1,2,4-oxadiazol-5-yl]-2-hydroxyethyl]-4-fluorobenzamide]	> 80	–
O=C(N[C@@H](CO)c1nc(-c2c[nH]c3ccc(Cl)cc23)no1)c1ccc(F)cc1 [Compound 233, N-[(1S)-1-[3-(5-chloro-1H-indol-3-yl)-1,2,4-oxadiazol-5-yl]-2-hydroxyethyl]-4-fluorobenzamide]	40 to 80	–
O=C(N[C@@H](CO)c1nc(-c2c[nH]c3ccc(F)cc23)no1)c1ccc(F)cc1 [Compound 234]	40 to 80	–
COc1ccc2nc(-c3noc([C@H](CO)NC(=O)c4ccc(F)cc4)n3)sc2c1 [Compound 235, 4-fluoro-N-[(1S)-2-hydroxy-1-[3-(6-methoxy-1,3-benzothiazol-2-yl)-1,2,4-oxadiazol-5-yl]ethyl]benzamide]	40 to 80	63
O=C(N[C@@H](CO)c1nc(-c2ccc(C(F)(F)F)cc2)no1)c1ccc(Cl)cc1F [Compound 236, 4-chloro-2-fluoro-N-[(1S)-2-hydroxy-1-{3-[4-(trifluoromethyl)phenyl]-1,2,4-oxadiazol-5-yl}ethyl]benzamide]	> 80	–
O=C(N[C@@H](CO)c1nc(-c2ccc(C(F)(F)F)cc2)no1)c1ccc2[nH]nnc2c1 [Compound 238, N-[(1S)-2-hydroxy-1-{3-[4-(trifluoromethyl)phenyl]-1,2,4-oxadiazol-5-yl}ethyl]-1H-1,2,3-benzotriazole-5-carboxamide]	40 to 80	–
O=C(N[C@@H](CO)c1nc(-c2ccc(C(F)(F)F)cc2)no1)c1ccc(Cl)cn1 [Compound 239, 5-chloro-N-[(1S)-2-hydroxy-1-{3-[4-(trifluoromethyl)phenyl]-1,2,4-oxadiazol-5-yl}ethyl]pyridine-2-carboxamide]	40 to 80	64
O=C(N[C@@H](CO)c1nc(-c2ccc(C(F)(F)F)cc2)no1)c1cn2ccccc2n1 [Compound 240, N-[(1S)-2-hydroxy-1-{3-[4-(trifluoromethyl)phenyl]-1,2,4-oxadiazol-5-yl}ethyl]imidazo[1,2-a]pyridine-2-carboxamide]	< 40	–
N[C@@H](Cc1c[nH]c2ccccc12)C(=O)N[C@@H](CO)c1nc(-c2ccc(C(F)(F)F)cc2)no1 [Compound 241, (2S)-2-amino-N-[(1S)-2-hydroxy-1-{3-[4-(trifluoromethyl)phenyl]-1,2,4-oxadiazol-5-yl}ethyl]-3-(1H-indol-3-yl)propanamide]	< 40	–
O=C(N[C@@H](CO)c1nc(-c2cccc(C(F)(F)F)c2)no1)c1ccc(F)c(Cl)c1 [Compound 242, 3-chloro-4-fluoro-N-[(1S)-2-hydroxy-1-{3-[3-(trifluoromethyl)phenyl]-1,2,4-oxadiazol-5-yl}ethyl]benzamide]	40 to 80	59
O=C(N[C@@H](CO)c1nc(-c2cccc(C(F)(F)F)c2)no1)c1c[nH]c2ccccc12 [Compound 243, N-[(1S)-2-hydroxy-1-{3-[3-(trifluoromethyl)phenyl]-1,2,4-oxadiazol-5-yl}ethyl]-1H-indole-3-carboxamide]	< 40	–
O=C(N[C@@H](CO)c1nc(-c2cccc(C(F)(F)F)c2)no1)c1cn2ccccc2n1 [Compound 244, N-[(1S)-2-hydroxy-1-{3-[3-(trifluoromethyl)phenyl]-1,2,4-oxadiazol-5-yl}ethyl]imidazo[1,2-a]pyridine-2-carboxamide]	< 40	–
Cn1cc(-c2noc([C@H](CO)NC(=O)c3ccc(F)cc3)n2)c2ccccc21 [Compound 245, 4-fluoro-N-[(1S)-2-hydroxy-1-[3-(1-methyl-1H-3-yl)-1,2,4-oxadiazol-5-yl]ethyl]benzamide]	40 to 80	–
O=C(N[C@@H](CO)c1nc(-c2ncccn2)no1)c1ccc(F)cc1 [Compound 246, 4-fluoro-N-[(1S)-2-hydroxy-1-[3-(pyrimidin-2-yl)-1,2,4-oxadiazol-5-yl]ethyl]benzamide]	40 to 80	–
O=C(N[C@@H](CO)c1nc(-c2c[nH]c3ccc(Br)cc23)no1)c1ccc(F)cc1 [Compound 247, N-[(1S)-1-[3-(5-bromo-1H-indol-3-yl)-1,2,4-oxadiazol-5-yl]-2-hydroxyethyl]-4-fluorobenzamide]	40 to 80	–
O=C(N[C@@H](CO)c1nc(-c2ccc(-c3ccccc3)s2)no1)c1ccc(F)cc1 [Compound 248, 4-fluoro-N-[(1S)-2-hydroxy-1-[3-(5-phenylthiophen-2-yl)-1,2,4-oxadiazol-5-yl]ethyl]benzamide]	40 to 80	–
O=C(N[C@@H](CO)c1nc(-c2cc(Cl)c(Cl)[nH]2)no1)c1ccc(F)cc1 [Compound 249, N-[(1S)-1-[3-(4,5-dichloro-1H-pyrrol-2-yl)-1,2,4-oxadiazol-5-yl]-2-hydroxyethyl]-4-fluorobenzamide]	40 to 80	–
O=C(N[C@@H](CO)c1nc(-c2ccc3cc[nH]c3c2)no1)c1ccc(F)cc1 [Compound 250, 4-fluoro-N-[(1S)-2-hydroxy-1-[3-(1H-indol-6-yl)-1,2,4-oxadiazol-5-yl]ethyl]benzamide]	40 to 80	–
O=C(N[C@@H](CO)c1nc(-c2ccc(Cl)[nH]2)no1)c1ccc(F)cc1 [Compound 251, N-[(1S)-1-[3-(5-chloro-1H-pyrrol-2-yl)-1,2,4-oxadiazol-5-yl]-2-hydroxyethyl]-4-fluorobenzamide]	40 to 80	–
O=C(N[C@@H](CO)c1nc(-c2c[nH]c3ccc(Cl)cc23)no1)c1ccc(Cl)cc1F [Compound 252, 4-chloro-N-[(1S)-1-[3-(5-chloro-1H-indol-3-yl)-1,2,4-oxadiazol-5-yl]-2-hydroxyethyl]-2-fluorobenzamide]	40 to 80	–
O=C(N[C@@H](CO)c1nc(-c2c[nH]c3ccc(Cl)cc23)no1)c1ccc(N2CCCC2)cc1 [Compound 253, N-[(1S)-1-[3-(5-chloro-1H-indol-3-yl)-1,2,4-oxadiazol-5-yl]-2-hydroxyethyl]-4-(pyrrolidin-1-yl) benzamide]	40 to 80	–
O=C(N[C@@H](CO)c1nc(-c2c[nH]c3ccc(Cl)cc23)no1)c1ccc(Cl)cn1 [Compound 254, 5-chloro-N-[(1S)-1-[3-(5-chloro-1H-indol-3-yl)-1,2,4-oxadiazol-5-yl]-2-hydroxyethyl] pyridine-2-carboxamide]	40 to 80	–

Further lines, results first:

inhibition at 25 µM [1] [%]	inhibition at 25 µM [2] [%]	SMILES
40 to 80	–	O=C(N[C@@H](CO)c1nc(-c2ccoc2Cl)no1)c1ccc(F)cc1 [Compound 255, N-[(1S)-1-[3-(2-chlorofuran-3-yl)-1,2,4-oxadiazol-5-yl]-2-hydroxyethyl]-4-fluorobenzamide]
40 to 80	–	O=C(N[C@@H](CO)c1nc(-c2ccc3c(C(=O)C(F)(F)F)c[nH]c3c2)no1)c1ccc(F)cc1 [Compound 256, 4-fluoro-N-[(1S)-2-hydroxy-1-{3-[3-(2,2,2-trifluoroacetyl)-1H-indol-6-yl]-1,2,4-oxadiazol-5-yl}ethyl] benzamide]
40 to 80	–	Nc1n[nH]cc1-c1noc([C@H](CO)NC(=O)c2ccc(F)cc2)n1 [Compound 257, N-[(1S)-1-[3-(3-amino-1H-pyrazol-4-yl)-1,2,4-oxadiazol-5-yl]-2-hydroxyethyl]-4-fluorobenzamide]
40 to 80	–	Nc1[nH]cnc1-c1noc([C@H](CO)NC(=O)c2ccc(F)cc2)n1 [Compound 258, N-[(1S)-1-[3-(5-amino-1H-imidazol-4-yl)-1,2,4-oxadiazol-5-yl]-2-hydroxyethyl]-4-fluorobenzamide]
40 to 80	–	O=C(N[C@@H](CO)c1nc(-c2nc3ccc(O)cc3s2)no1)c1ccc(F)cc1 [Compound 259, 4-fluoro-N-[(1S)-2-hydroxy-1-[3-(6-hydroxy-1,3-benzothiazol-2-yl)-1,2,4-oxadiazol-5-yl]ethyl] benzamide]
40 to 80	–	O=C(N[C@@H](CO)c1nc(-c2c[nH]c3cc(F)ccc23)no1)c1ccc(F)cc1 [Compound 260, 4-fluoro-N-[(1S)-1-[3-(6-fluoro-1H-indol-3-yl)-1,2,4-oxadiazol-5-yl]-2-hydroxyethyl] benzamide]
40 to 80	–	COc1ccc2[nH]cc(-c3noc([C@H](CO)NC(=O)c4ccc(F)cc4)n3)c2c1 [Compound 261, 4-fluoro-N-[(1S)-2-hydroxy-1-[3-(5-methoxy-1H-indol-3-yl)-1,2,4-oxadiazol-5-yl]ethyl] benzamide]
40 to 80	–	O=C(N[C@@H](CO)c1nc(-c2c[nH]c3ccc(C(F)(F)F)cc23)no1)c1ccc(F)cc1 [Compound 262, 4-fluoro-N-[(1S)-2-hydroxy-1-{3-[5-(trifluoromethyl)-1H-indol-3-yl]-1,2,4-oxadiazol-5-yl}ethyl] benzamide]
40 to 80	–	O=C(N[C@@H](CO)c1nc(-c2c[nH]c3cc(Cl)ccc23)no1)c1ccc(F)cc1 [Compound 263, N-[(1S)-1-[3-(6-chloro-1H-indol-3-yl)-1,2,4-oxadiazol-5-yl]-2-hydroxyethyl]-4-fluorobenzamide]
40 to 80	–	O=C(N[C@@H](CO)c1nc(-c2cn(CCO)c3ccccc23)no1)c1ccc(F)cc1 [Compound 264]
40 to 80	–	O=C(N[C@@H](CO)c1nc(-c2n[nH]c3ccccc23)no1)c1ccc(F)cc1 [Compound 265, 4-fluoro-N-[(1S)-2-hydroxy-1-[3-(1H-indazol-3-yl)-1,2,4-oxadiazol-5-yl]ethyl] benzamide]
